Patent US12668568B2, “Adamantanyl-substituted benzamide compounds and their use as P2X7 receptor antagonists” (The University of Sydney, priority 2018, dated 2026)

Assays:
mP2X7R = target: T1, mP2X7R (Mus musculus, UniProt Q9Z1M0); assay: Calcium influx assay in HEK-mP2X7 cells; type: cell-based; settings: HEK cells expressing mP2X7R, BzATP 100 μM; mean ± standard deviation, n >3
T1 construct: expressed in transfected cells; host or cells: HEK293T, G418-selected; gift from Dr Leanne Stokes and Prof; Jim Wiley
T1 sequence (Q9Z1M0 1-595): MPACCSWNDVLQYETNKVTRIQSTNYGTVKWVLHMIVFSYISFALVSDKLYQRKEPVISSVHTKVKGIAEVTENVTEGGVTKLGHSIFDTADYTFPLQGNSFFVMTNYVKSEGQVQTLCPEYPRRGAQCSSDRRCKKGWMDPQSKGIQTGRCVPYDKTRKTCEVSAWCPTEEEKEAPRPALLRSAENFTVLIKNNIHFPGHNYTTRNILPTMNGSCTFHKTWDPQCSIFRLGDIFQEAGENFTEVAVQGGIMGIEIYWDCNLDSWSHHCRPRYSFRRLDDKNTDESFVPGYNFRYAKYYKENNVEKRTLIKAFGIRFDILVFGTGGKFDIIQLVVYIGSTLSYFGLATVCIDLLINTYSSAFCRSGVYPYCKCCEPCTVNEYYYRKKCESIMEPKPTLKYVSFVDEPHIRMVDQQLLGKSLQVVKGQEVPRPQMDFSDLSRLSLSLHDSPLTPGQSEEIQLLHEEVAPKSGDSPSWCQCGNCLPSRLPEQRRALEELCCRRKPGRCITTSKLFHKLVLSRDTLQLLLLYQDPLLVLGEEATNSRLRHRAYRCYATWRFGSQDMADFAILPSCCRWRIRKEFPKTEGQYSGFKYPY
Protocol: HEK293T cells transfected with cDNA for the human (HEK-hP2X7) or mouse P2X7 (HEK-mP2X7) receptor (a kind gift from Dr […] Stokes and Prof. Jim Wiley) were cultured in DMEM/F12 with 10% FBS and 500 μg/mL G418 (all from Invitrogen). […] HEK-hP2X7 or HEK-mP2X7 cells were harvested using trypsin (0.05%) with EDTA (0.03%). Cells were loaded with Fluo-4 AM (1 μM) in HBSS buffer at 37° C. for 30 min, inverting every 5 mins. […] Cells were resuspended a final time in assay buffer and seeded into black-walled 96 well clear-bottom plates at a density of 5×10^4 cells/well. […] Fluorescence was then monitored every 5 s for 5 min total monitoring. […] Data were normalized to the peak response seen with BzATP alone and the basal response seen due to injection of vehicle (see FIG. 3).

[1] = Liver microsome stability; type: in vitro ADME; settings: liver microsomes, rat liver microsome, 37° C., read-out: Liver microsome T1/2 (converted)
Text: Microsomes are vesicles of endoplasmic reticulum isolated from liver homogenate following differential centrifugation. They contain drug metabolising enzymes including the cytochromes P450 (CYP) responsible for a majority of drug metabolism. They also contain the phase II metabolising enzyme responsible for glucuronidation—uridine diphosphate glucuronyltransferase (UDPGT). As they contain many of the drug metabolizing enzymes found in the liver they are useful in vitro models of hepatic clearance. Assays are performed by incubating drugs of interest at a concentration of 1 μM with the microsomes at 37° C. The disappearance of the test compound is monitored at fixed points over a period of 60 minutes and samples analysed using LC-MSMS. The resulting data can be used to determine: • 1. Intrinsic clearance. These values can be used to categorise compounds into bands of high, medium or low clearance. Generally compounds with high clearances are considered to be less favourable as they are likely to be cleared more rapidly in vivo resulting in a short duration of action. • 2. Rank order compounds in order of microsomal stability by calculating half-life. Cytochrome Profiling […]

CYP1A2 = target: T2, CYP1A2 (Homo sapiens, UniProt P05177); assay: Cytochrome profiling CYP1A2 (baculosomes); type: in vitro ADME; settings: probe fluorogenic probe substrate (not named), 10 μM substrate
T2 construct: host or cells: insect cells infected with recombinant baculovirus (microsomes)
T2 sequence (P05177 1-516): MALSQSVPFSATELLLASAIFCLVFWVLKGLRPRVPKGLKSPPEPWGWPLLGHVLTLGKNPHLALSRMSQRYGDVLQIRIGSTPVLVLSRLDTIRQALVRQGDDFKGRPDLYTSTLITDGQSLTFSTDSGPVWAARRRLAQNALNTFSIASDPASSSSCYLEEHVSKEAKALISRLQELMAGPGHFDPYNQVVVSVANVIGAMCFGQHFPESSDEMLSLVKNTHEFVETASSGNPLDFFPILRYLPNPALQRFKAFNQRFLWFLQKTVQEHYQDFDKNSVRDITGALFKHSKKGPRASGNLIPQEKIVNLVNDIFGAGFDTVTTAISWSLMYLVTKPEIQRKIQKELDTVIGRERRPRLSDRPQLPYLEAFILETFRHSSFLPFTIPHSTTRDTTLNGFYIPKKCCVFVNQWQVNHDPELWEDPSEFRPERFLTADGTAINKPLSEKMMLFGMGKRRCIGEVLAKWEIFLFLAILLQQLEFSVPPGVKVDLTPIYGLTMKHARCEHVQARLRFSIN
Text: (§1) Cytochrome P450 (abbreviated CYP, P450 or CYP450) belong to very large and diverse superfamily of haemoproteins which accept both exogenous and endogenous compounds as substrates in enzymatic reactions and play a major role in drug metabolism. Although this class has more than 50 enzymes just 5 of them (CYP1A2, CYP2C9, CYP2C19, CYP2D6 and CYP3A4) are able to metabolise almost 90% of all drugs. Inhibition of these enzymes is one of the major reasons for drug-drug interactions. Consequently, detailed CYP inhibition profiles are a regulatory requirement for all new drugs. Inhibition potencies against the five most relevant CYP isoforms is performed using baculosomes; microsomes prepared from insect cells infected with recombinant baculovirus containing cDNA for a specific human P450 isozyme. The baculosomes are incubated with drug at a concentration of 1 μM in the presence of a probe substrate for 60 minutes at 37° C. The probe is normally metabolised by the baculosomes to produce a fluorescent metabolite. A substrate drug will compete for the isozyme and reduce the metabolism of the probe resulting in a decrease in the fluorescent signal. The percent inhibition due to the presence of the test compound is calculated using the following equation: [formula] • X=fluorescent intensity observed in the presence of test compound • A=fluorescent intensity observed in control • B=fluorescent intensity observed in the presence of the probe control

CYP3A4 = target: T3, CYP3A4 (Homo sapiens, UniProt P08684); assay: Cytochrome profiling CYP3A4 (baculosomes); type: in vitro ADME; settings: probe fluorogenic probe substrate (not named), 10 μM substrate
T3 construct: host or cells: insect cells infected with recombinant baculovirus (microsomes)
T3 sequence (P08684 whole entry): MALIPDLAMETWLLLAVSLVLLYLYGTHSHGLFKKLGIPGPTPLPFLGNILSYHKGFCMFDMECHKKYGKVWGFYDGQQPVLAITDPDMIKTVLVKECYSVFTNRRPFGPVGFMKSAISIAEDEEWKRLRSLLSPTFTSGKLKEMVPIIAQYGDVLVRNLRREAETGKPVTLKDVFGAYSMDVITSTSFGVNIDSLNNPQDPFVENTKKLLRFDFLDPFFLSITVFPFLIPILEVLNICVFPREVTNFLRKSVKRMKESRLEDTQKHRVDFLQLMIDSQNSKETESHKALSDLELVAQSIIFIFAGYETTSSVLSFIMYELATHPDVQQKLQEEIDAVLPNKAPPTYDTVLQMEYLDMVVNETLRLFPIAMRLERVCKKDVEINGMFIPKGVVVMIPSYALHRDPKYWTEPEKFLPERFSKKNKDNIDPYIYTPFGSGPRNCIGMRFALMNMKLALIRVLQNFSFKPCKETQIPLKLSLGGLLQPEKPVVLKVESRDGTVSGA
Text: as §1

| Structure (SMILES) | IC50 (mP2X7R) [µM] | half-life at 1 μM [1] [min] | inhibition at 60 min, 1 μM (CYP1A2) [%] | inhibition at 60 min, 1 μM (CYP3A4) [%] |
| --- | --- | --- | --- | --- |
| COc1ccc(Cl)c(C(=O)NCC23CC4(F)CC(F)(CC(F)(C4)C2)C3)c1 [Compound 1, 2-Chloro-N-((3,5,7-trifluoroadamantan-1-yl)methyl)-5-methoxybenzamide] | 0.158 ± 0.044 | 46.8 | 5.48 | 89.9 |
| COc1ccc(Cl)c(C(=O)NCC23CC4CC(F)(CC(F)(C4)C2)C3)c1 [Compound 2, 2-Chloro-N-((3,5-difluoroadamantan-1-yl)methyl)-5-methoxybenzamide] | 0.575 ± 0.108 | 18 | 7.04 | 89.9 |
| COc1ccc(Cl)c(C(=O)NCC23CC4CC(CC(F)(C4)C2)C3)c1 [Compound 3, 2-Chloro-N-((3-fluoroadamantan-1-yl)methyl)-5-methoxybenzamide] | 1.51 ± 0.339 | 4.8 | 7.86 | 88.8 |
| COc1ccc(Cl)c(C(=O)NCC23CC4CC(CC(C4)C2)C3)c1 [Compound 31, reference compound] | 1.91 ± 0.905 | 7.8 | 25.7 | 84.4 |
